According to patent publication US9629855B2, “Pharmaceutical composition for treatment of eye pain, containing PGE2 synthesis inhibitor” (INDUSTRY-ACADEMIC COOPERATION FOUNDATION, YONSEI UNIVERSITY, priority 2011, dated 2017):

Experiments:
[1] = system: patients having an ocular pain symptom; test: Number of eye blinks after intraocular administration of selective COX2 inhibitors to ocular pain patients; format: in vivo, human; details: control group = Diclofenac
[2] = system: patients having an ocular pain symptom; test: Number of eye blinks after intraocular administration of PGE2 synthesis inhibitors to eye pain patients; format: in vivo, human; details: blinks for 5 min
Description: PGE2 synthesis inhibitors were administered intraocularly to patients having an ocular pain symptom, and whether the number of eye blinks of the patient group was reduced compared to that of a control group was examined. The PGE2 synthesis inhibitors used were 15-deoxy-Δ^12,14-PGJ2, exisulind, NS-398, leukotriene C4, mk-886, analogues of MK-886, MF63, thienopyrrole, naphthalene disulphonamide, resveratrol, and γ-hydroxybutenolide.
As a result, it was shown that, when the PGE synthesis inhibitors were administered intraocularly, they reduced ocular discomfort to thereby reduce the number of eye blinks (Table 2).

Which “Number of eye blinks of treated group (n = 3)” value (from here on “Number of eye blinks … (n = 3)”) [1] does the source give for `CS(=O)(=O)Nc1ccc([N+](=O)[O-])cc1Oc1ccccc1` [Nimesulud] here?
The value was 16.

With `CCN1CC/C(=C\c2cc(C(C)(C)C)c(O)c(C(C)(C)C)c2)S1(=O)=O` [S-2474, 3,5-di-tert-buryl-4-hydroxybenzylidene] as the compound, how does the “Number of eye blinks … (n = 3)” value [1] read?
The value was 15.

With `CS(=O)(=O)Nc1ccc([N+](=O)[O-])cc1OC1CCCCC1` [NS-398] as the compound, how does the “Number of eye blinks of treated group (n = 10) for 5 min” value (“Number of eye blinks … for 5 min” for short) [2] read?
Its value is 13.

`Oc1ccc(C=Cc2cc(O)cc(O)c2)cc1` [Resveratrol] was tested. Which “Number of eye blinks … for 5 min” value [2] did it give?
Its value is 17.

Which “Number of eye blinks … for 5 min” value [2] does the source give for `CC(C)c1ccc2c(c1)c(SC(C)(C)C)c(CC(C)(C)C(=O)O)n2Cc1ccc(Cl)cc1` [mk-886] here?
The value was 15.

With `c1cc2sccc2[nH]1` [Thienopyrrole] as the compound, how does the “Number of eye blinks … for 5 min” value [2] read?
Its value is 13.

Which “Number of eye blinks … (n = 3)” value [1] does the source give for `Cc1cnc(NC(=O)C2=C(O)c3ccccc3S(=O)(=O)N2C)s1` [Meloxicam] here?
The value was 20.

Which “Number of eye blinks … for 5 min” value [2] does the source give for `CCCCC/C=C\C\C=C/C=C/C=C/[C@@H](SC[C@H](NC(=O)CC[C@H](N)C(=O)O)C(=O)NCC(=O)O)[C@@H](O)CCCC(=O)O` [Leukotriene C4] here?
Its value is 17.

With `CCCCC/C=C/C=C1/C(=O)C=C[C@@H]1C/C=C\CCCC(=O)O` [15-deoxy-Δ^12,14-PGJ2] as the compound, how does the “Number of eye blinks … for 5 min” value [2] read?
Its value is 11.

With `CC1=C(CC(=O)O)c2cc(F)ccc2/C1=C\c1ccc(S(C)(=O)=O)cc1` [Exisulind] as the compound, how does the “Number of eye blinks … for 5 min” value [2] read?
The value was 14.
